Data taken from patent US20170143835A1, “SUBSTITUTED ANIONIC COMPOUNDS CONSISTING OF A BACKBONE MADE UP OF A DISCRETE NUMBER OF SACCHARIDE UNITS” (ADOCIA, priority 2012, published 2017).
Blank lines part the entries; values can stand above or below the substance they belong to.

Columns and labels:
[1] = target: serum albumin (BSA) (Bos taurus, UniProt P02769); experiment: Fluorescence test for interaction with albumin; assay type: binding, bovine; details: for Result F/F0 <0.85 / Result F/F0 <0.5: BSA 0.5 mg/ml, PBS pH 7.4; for Result F/F0 <0.5: compound/BSA weight ratio 1, excitation 280 nm, emission 350 nm
Sequence of serum albumin (BSA) (P02769 25-607): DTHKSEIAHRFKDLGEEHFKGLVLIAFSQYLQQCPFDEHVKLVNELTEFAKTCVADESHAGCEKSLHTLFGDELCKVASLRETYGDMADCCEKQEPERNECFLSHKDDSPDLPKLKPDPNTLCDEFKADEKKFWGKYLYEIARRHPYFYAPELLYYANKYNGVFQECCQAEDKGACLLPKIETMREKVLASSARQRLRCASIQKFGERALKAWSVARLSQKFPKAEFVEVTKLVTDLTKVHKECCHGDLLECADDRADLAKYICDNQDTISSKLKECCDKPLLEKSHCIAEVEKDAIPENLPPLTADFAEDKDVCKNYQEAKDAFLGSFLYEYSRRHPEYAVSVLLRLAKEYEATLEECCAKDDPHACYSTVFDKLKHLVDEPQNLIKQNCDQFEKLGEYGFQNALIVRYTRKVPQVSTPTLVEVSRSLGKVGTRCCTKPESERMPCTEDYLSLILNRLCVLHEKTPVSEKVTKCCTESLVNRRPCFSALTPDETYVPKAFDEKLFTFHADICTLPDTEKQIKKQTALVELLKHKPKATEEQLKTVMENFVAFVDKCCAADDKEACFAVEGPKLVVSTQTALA
Procedure: The test carried out is a “fluorescence” test with albumin, which makes it posible, by measuring the variations in fluorescence of albumin, to verify whether an interaction exists between the compound tested and albumin.
The compound/albumin solutions are prepared from stock solutions of compounds and of serum albumin (BSA) by mixing the appropriate volumes in order to obtain a fixed BSA concentration at 0.5 mg/ml and compound/BSA weight ratios of 1, 5 and 10. These solutions are prepared in a PBS buffer at pH 7.4.
200 μl of the various compound/BSA solutions are introduced into a 96-well plate. The fluorescence measurements are carried out at room temperature (20° C.) with an EnVision® fluorescence spectrometer (PerkinElmer). The excitation wavelength is 280 nm and the emission wavelength is 350 nm. This corresponds to the fluorescence of the tryptophan residues of albumin (Ruiz-Peña M. et al., M, A. Physico-chemical studies of molecular interactions between non-ionic surfactants and bovine serum albumin, Colloids Surf. B Biointerfaces 2010, 75, 282-289). The F (compound/BSA)/F0 (BSA alone) ratio makes it possible to evaluate the interaction between the compound and albumin. If this ratio is less than 1, this means that the compound induces partial quenching of the albumin fluorescence linked to a change in environment of the tryptophan residues. This change reflects an interaction between the compound and albumin. It was verified, as a control, that, for all the compounds tested, the fluorescence of the compound alone is negligible considering the fluorescence of albumin (fluorescence (compound) <2% fluorescence (albumin)).

[2] = target: T1, lysozyme (Gallus gallus, UniProt P00698); experiment: Turbidity measurement assays of compound/lysozyme solutions; assay type: physicochemical; details: for Turbidity of the solutions at the molar ratio 0.1: compound/lysozyme molar ratio 0.1; for Turbidity of the solutions at the molar ratio 0.1 / Turbidity of the solutions at the molar ratio 0.5: histidine buffer pH 6.2, NaCl, HACH 2100AN turbidity meter; for Turbidity of the solutions at the molar ratio 0.5: compound/lysozyme molar ratio 0.5; for turbidity of the compound/lysozyme solution compared with the counterexample/lysozyme solutions: whatever the ratio
T1 construct: purchased Sigma-Aldrich L6876
T1 sequence (P00698 19-147): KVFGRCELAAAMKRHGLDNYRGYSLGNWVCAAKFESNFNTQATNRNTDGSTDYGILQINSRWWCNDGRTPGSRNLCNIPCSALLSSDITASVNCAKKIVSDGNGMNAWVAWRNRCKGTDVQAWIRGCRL
Procedure: The turbidity of solutions in which a “model” protein, lysozyme and either a compound according to the invention or a counterexample compound are brought together is analyzed in the compound/lysozyme molar ratios of 0, 0.1 and 0.5.
The following solutions are prepared beforehand: histidine buffer solution, pH 6.2±0.1, at 194 mM (30 mg/ml), sodium chloride (NaCl) solution at 5017 mM (293 mg/ml), solution of lysozyme (Sigma-Aldrich, Ref L6876, CAS#12650-88-3) at […] ([…]), and solutions of each of the test products (pH 6.2±0.1), i.e. compounds according to the invention and counterexamples.
For each of the solutions of compounds to be prepared, 3 ml of an aqueous solution of compound are adjusted to pH 6.2±0.1 using 50±25 μl of a 0.1N hydrochloric acid (HCl) solution.
The test solutions at the compound/lysozyme molar ratios: 0, 0.1 and 0.5 are then prepared as follows.
The sodium chloride (NaCl) solution at 5017 mM, the histidine buffer solution at 194 mM and then the solution of compound are successively added to water, which results in a mixture which is homogenized on a roller mixer (Stuart Roller Mixer SRT9D) for 1 minute.
The lysozyme solution is, finally, added and then the final mixture is homogenized on the roller mixer for 1 minute.
The turbidity (expressed in NTU) for each of the final test solutions is measured using a HACH 2100AN turbidity meter.
The turbidity of the compound 1/lysozyme solution is analyzed in comparison with that of the counterexample A1/lysozyme and counterexample A2/lysozyme solutions. The turbidity of the compound 13/lysozyme solution is analyzed in comparison with that of the counterexample B1/lysozyme and counterexample B2/lysozyme solutions.

Substance: Sodium maltotriosemethylcarboxylate Functionalized with 2-[(2-dodecanoylamino-6-dodecanoylamino)hexanoylamino]ethanamine [Compound 20]
Result F/F0 <0.5 [1]: YES

Substance: Sodium maltotriosemethylcarboxylate Functionalized with L-phenylalanine [Compound 1]
Turbidity of the solutions at the molar ratio 0.1 [2]: 55 NTU
Turbidity of the solutions at the molar ratio 0.5 [2]: 4.8 NTU
turbidity of the compound/lysozyme solution compared with the counterexample/lysozyme solutions [2]: lower

Substance: Sodium maltotriosemethylcarboxylate Functionalized with 2-[(2octanoylamino-6-octanoylamino)hexanoylamino]ethanamine [Compound 27]
Result F/F0 <0.5 [1]: YES

Substance: Sodium maltotriosesuccinate Functionalized with dilauryl aspartate [Compound 22]
Result F/F0 <0.5 [1]: YES

Continued, values first:

Result F/F0 <0.85 ([1]; compound/BSA weight ratio 5): YES
Result F/F0 <0.85 ([1]; compound/BSA weight ratio 10): YES
fluorescence ratio F/F0 ([1]; compound/BSA weight ratio of 5): < 0.85
fluorescence ratio F/F0 ([1]; compound/BSA weight ratio of 10): < 0.85
Substance: Sodium maltotriosemethylcarboxylate Functionalized with L-phenylalanine [Compound 2]

Result F/F0 <0.5 [1]: YES
Substance: Sodium maltotriosemethylcarboxylate Functionalized with 3,7-dimethyloctanoyl phenylalaninate [Compound 30]

Result F/F0 <0.5 [1]: YES
Substance: Sodium maltotriosemethylcarboxylate Functionalized with N-(2-aminoethyl)dodecanamide [Compound 21]

Result F/F0 <0.5 [1]: YES
Substance: Sodium maltotriosemethylcarboxylate Functionalized with 2-aminoethyl dodecanoate [Compound 29]

Result F/F0 <0.5 [1]: YES
Substance: Sodium maltotriosemethylcarboxylate Functionalized with decanoyl glycinate [Compound 23]

Turbidity of the solutions at the molar ratio 0.1 [2]: 32 NTU
Turbidity of the solutions at the molar ratio 0.5 [2]: 395 NTU
turbidity of the compound/lysozyme solution compared with the counterexample/lysozyme solutions [2]: lower
Substance: Sodium maltotriosemethylcarboxylate Functionalized with cholesteryl leucinate [Compound 13]
